Target: T1, Human Platelet Receptor (Homo sapiens, UniProt P25105)
T1 construct: tissue Lifesource, Inc. (Glenview, Ill.); host or cells: human packed platelets, washed, broken by freeze-thaw; membrane pellet
Experiment: Human Platelet Receptor Binding (inhibition of specific binding of [^3 H]PAF to human platelet membrane preparation)
Conditions: 0.5 h, 0.75 nM [^3 H]PAF, human platelet membranes, read-out: Human Platelet Receptor, % @ 10 μM (percent displacement)
Method: Assay B: Human Platelet Receptor Binding
Compounds of the invention were evaluated for their ability to inhibit specific binding of [^3 H]PAF to human platelet membrane preparation. Human packed platelets were obtained from Lifesource, Inc. (Glenview, Ill.) and washed 3 times with 10 mM Trizma pH 7.0, 2 mM EDTA (dipotassium salt), 150 mM KCl and then once with 10 mM Trizma 7.4, 20 mM CaCl2. The platelets were broken by freezing in a dry ice-ethanol bath, followed by thawing in 24° C. water baths. The preparation was centrifuged (40,000 x g, 20 minutes, […]) and the pellet suspended in 10 mM Trizma 7.4, 20 mM CaCl2, 5 mg/ml human albumin. Protein concentration in the platelet membrane preparation was determined by the Lowry method [O. H. Lowry et al., J. Biol. Chem., 193, 265-275 (1951)]. Aliquots of the membrane preparation were stored at -70° C. Each preparation was characterized for PAF receptor number and dissociation constant (Kd). In binding assays 5 μl of test compound, solubilized in DMSO, was added to polypropylene tubes along with 0.75 nM [^3 H]PAF and 200 mcl [[…]] of membranes and 95 μl 10 mM Trizma 7.4, 20 mM CaCl2, 5 mg/ml human albumin. Tubes were incubated for 30 minutes at 24° C. The incubation was terminated by adding 4 ml of ice-cold 10 mM Trizma pH 7.4, 20 mM CaCl2 and 20 mg/ml BSA prior to vacuum filtration using Whatman GF/C filters. Filters were prepared and counted in a scintillation counter. All DPM values (disintergrations per minute) were-corrected for background and isotope decay. Triplicate determinations for single doses were averaged. […] The IC50 values for the compounds of the invention were determined by the Allfit program using percent displacement data. (Allfit is a `basic` computer program for simultaneous curve fitting of a family of signoidal dose-response curves using the four parameter logistic equation.) Results are shown in Table I. In Table 1 "N.D." means not determined; "c-pent" means cyclopentyl; "c-hex" means cyclohexyl; "i-Pr" means isopropyl; "Me" means methyl; and "OMe" means methoxy.

T1 sequence (P25105 whole entry): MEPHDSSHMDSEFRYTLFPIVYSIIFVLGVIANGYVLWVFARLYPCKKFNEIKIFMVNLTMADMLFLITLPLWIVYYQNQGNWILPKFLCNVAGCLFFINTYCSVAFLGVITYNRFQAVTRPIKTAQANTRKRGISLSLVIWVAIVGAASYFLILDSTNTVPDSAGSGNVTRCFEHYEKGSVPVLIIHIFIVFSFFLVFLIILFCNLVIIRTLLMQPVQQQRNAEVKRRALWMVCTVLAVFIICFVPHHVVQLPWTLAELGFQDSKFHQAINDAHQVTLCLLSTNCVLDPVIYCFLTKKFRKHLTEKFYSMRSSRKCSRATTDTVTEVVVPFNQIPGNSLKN

| Structure (SMILES) | inhibition at 10 µM |
| --- | --- |
| COc1cc(Cn2cnc3ncncc32)ccc1C(=O)N(C(C)C)C1CCCCC1 [Example 2B, N-cyclohexyl-2-methoxy-N-(1-methylethyl)-4-(7H-purin-7-ylmethyl)benzamide] | 44% |
| COc1cc(Cn2cnc3ncnc-3c2)ccc1C(=O)N(C(C)C)C1CCCCC1 [Example 7, N-cyclohexyl-2-methoxy-N-(1-methylethyl)-4-(1H-purin-1-ylmethyl)benzamide] | 40% |
| CC(C)N(C(=O)c1ccc(Cn2cnc3ncnc-3c2)cc1)C1CCCCC1 [Example 8, N-cyclohexyl-N-(1-methylethyl)-4-(1H-purin-1-ylmethyl)benzamide] | 19% |

Source: patent US5861403A, “Purinylalkyl benzamide derivatives” (G. D. Searle & Co., priority 1996, dated 1999)
